In paper doi:10.1101/2024.10.11.617762v1 (biorxiv, 2024) one finds Kd and IC50 data, which are given here for 3 molecules.

Test [1] has as its target T1, N-CTD (C-terminal domain of the SARS-CoV-2 nucleocapsid (N) protein) (Severe acute respiratory syndrome coronavirus 2, UniProt P0DTC9). Put plainly: biochemical. The class given is binding.
The target in test [2] is T1, N-CTD (C-terminal domain of the SARS-CoV-2 nucleocapsid (N) protein). Put plainly: fluorescence intensity inhibition of FAM-RNA binding. The format is biochemical.

For the molecule `CC1(C)S[C@@H]2[C@H](NC(=O)[C@H](N)c3ccccc3)C(=O)N2[C@H]1C(=O)O` [ampicillin], binding in test [1] was put at a Kd of 28 ± 1.2 µM. Besides, the IC50 – broadly, the point on the concentration scale where inhibition reaches its midpoint – in test [2] worked out at 10.4 ± 0.2 µM.
For the molecule `CO/N=C(\C(=O)N[C@@H]1C(=O)N2C(C(=O)O)=C(CSc3nc(=O)c(=O)[nH]n3C)CS[C@H]12)c1csc(N)n1` [ceftriaxone], the Kd (in general, the concentration at which binding is half-saturated) in test [1] was 18 ± 1.3 µM. This molecule displayed an IC50 in test [2] of 12.4 ± 2.4 µM.
With `CO/N=C(\C(=O)N[C@@H]1C(=O)N2C(C(=O)O)=C(COC(N)=O)CS[C@H]12)c1ccco1` [cefuroxime], the Kd in test [1] is 55 ± 4.2 µM. The molecule further showed an IC50 in test [2] of 15.4 ± 2.8 µM.
